In this test the target is T1, NLRP3 (Homo sapiens, UniProt Q96P20).
T1 construct: endogenous in cells; host or cells: THP-1 cells (IFN-γ differentiated, LPS primed, ATP stimulated)
The test can be described thus: IL-1β (interleukin-1β) secretion in IFN-γ-differentiated, LPS/ATP-stimulated THP-1 cells (half inhibition rate of NLRP3). Conditions: IFN-γ 25 ng/mL, LPS 50 ng/mL, ATP 5 mM. The format is cell-based. The method in brief:
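IFN-γ-differentiated THP-1 cells primed with LPS (final 50 ng/mL, 4 h, serum-free), then given compound for 1 h and ATP (final 5 mM) for 1 h at 37 °C. Secreted IL-1β in supernatant quantified by sandwich ELISA (mAb Mt175 capture, biotinylated mAb7P10 detection, streptavidin-HRP/TMB, 450 nm).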

Data on one compound can be found in US20250002470A1, “NITROGEN-CONTAINING COMPOUND, PREPARATION METHOD THEREFOR AND APPLICATION THEREOF” (ZHEJIANG AIXPLORER BIOTECH CO., LTD., priority 2021, published 2025).

For orientation: IC50 means the concentration needed to halve the response being measured. A high value points to lower potency.

T1 sequence (Q96P20 whole entry): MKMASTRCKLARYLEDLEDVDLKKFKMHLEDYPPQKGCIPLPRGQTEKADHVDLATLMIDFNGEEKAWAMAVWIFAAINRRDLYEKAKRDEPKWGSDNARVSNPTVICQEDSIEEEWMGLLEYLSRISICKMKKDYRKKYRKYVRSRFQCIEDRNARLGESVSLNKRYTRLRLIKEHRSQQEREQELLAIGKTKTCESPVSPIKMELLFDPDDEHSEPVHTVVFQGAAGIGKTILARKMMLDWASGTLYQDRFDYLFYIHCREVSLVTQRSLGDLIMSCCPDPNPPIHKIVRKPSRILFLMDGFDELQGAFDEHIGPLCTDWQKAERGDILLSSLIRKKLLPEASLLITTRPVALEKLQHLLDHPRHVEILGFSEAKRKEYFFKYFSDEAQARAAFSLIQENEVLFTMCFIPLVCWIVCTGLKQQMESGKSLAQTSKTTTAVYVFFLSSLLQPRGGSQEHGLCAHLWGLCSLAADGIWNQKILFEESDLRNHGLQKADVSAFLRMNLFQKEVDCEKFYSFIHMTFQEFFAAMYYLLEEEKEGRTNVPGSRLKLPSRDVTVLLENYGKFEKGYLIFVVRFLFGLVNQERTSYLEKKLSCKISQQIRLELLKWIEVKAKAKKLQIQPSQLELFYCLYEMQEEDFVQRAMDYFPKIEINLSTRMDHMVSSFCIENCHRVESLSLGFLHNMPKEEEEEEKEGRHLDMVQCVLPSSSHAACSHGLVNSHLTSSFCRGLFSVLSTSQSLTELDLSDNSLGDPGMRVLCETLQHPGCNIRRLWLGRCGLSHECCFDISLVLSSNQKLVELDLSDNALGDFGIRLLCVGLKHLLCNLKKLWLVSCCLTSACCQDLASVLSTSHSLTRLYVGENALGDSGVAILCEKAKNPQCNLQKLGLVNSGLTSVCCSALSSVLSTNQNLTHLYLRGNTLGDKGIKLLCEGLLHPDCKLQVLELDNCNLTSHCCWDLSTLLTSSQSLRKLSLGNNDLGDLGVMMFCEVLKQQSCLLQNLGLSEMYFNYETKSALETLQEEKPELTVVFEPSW

For `Cc1nc(N[C@@H]2CCCC[C@H]2O)nnc1-c1ccc(C(F)(F)F)cc1O` [Embodiment 33], the IC50 worked out at 5.8 nM.
